Data from ChEMBL document CHEMBL1201862, “PubChem BioAssay data set” (2004).
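1) Cells in 96-well plates. 2) Compound, 48 h, 5 concentrations. 3) Linear interpolation between surrounding doses. 4) Unreached endpoint = highest concentration. The concentration for 50% growth inhibition is given as GI50.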 The source made the active and inactive calls. Cut-off read from the data, not from the text of the source: active = GI50 up to about 1.1 µM and inactive = higher.

Legend:
Assay in all cases: inhibition of tumour cell growth, NCI panel, 48 h
DU-145 = system: DU-145
TK-10 = system: TK-10
MCF7 = system: MCF7
COLO 205 = system: COLO 205
SK-MEL-5 = system: SK-MEL-5
786-0 = system: 786-0
RXF 393 = system: RXF 393
SK-OV-3 = system: SK-OV-3
HCT-15 = system: HCT-15
OVCAR-5 = system: OVCAR-5
CAKI-1 = system: CAKI-1
HT-29 = system: HT-29
SF-539 = system: SF-539
NCI-H226 = system: NCI-H226
A498 = system: A498
M14 = system: M14
OVCAR-3 = system: OVCAR-3
SF-268 = system: SF-268
UACC-257 = system: UACC-257
SR = system: SR

Compound | GI50 (DU-145) | GI50 (TK-10) | GI50 (MCF7) | GI50 (COLO 205) | GI50 (SK-MEL-5) | GI50 (786-0) | GI50 (RXF 393) | GI50 (SK-OV-3) | GI50 (HCT-15) [µM] | GI50 (OVCAR-5) | GI50 (CAKI-1) | GI50 (HT-29) | GI50 (SF-539) | GI50 (NCI-H226) | GI50 (A498) | GI50 (M14) | GI50 (OVCAR-3) | GI50 (SF-268) | GI50 (UACC-257) | GI50 (SR)
O=C1c2ccccc2C(O)(O)C1(O)C1(O)C(=O)c2ccccc2C1(O)O (stereo not drawn) | 57.3 µM (inactive) | 23 µM (inactive) | 16.8 µM (inactive) | 20.7 µM (inactive) | 20.1 µM (inactive) | 38.9 µM (inactive) | 26.6 µM (inactive) | > 100 µM (inactive) | 21.8 | 65.2 µM (inactive) | 29.6 µM (inactive) | > 100 µM (inactive) | 24.2 µM (inactive) | > 100 µM (inactive) | > 100 µM (inactive) | 35 µM (inactive) | 25.1 µM (inactive) | > 100 µM (inactive) |  | 
Cc1ccc(S(=O)(=O)N/N=C2\CC3C4C=CC3C2C4)cc1 (stereo not drawn) | > 100 µM (inactive) | > 100 µM (inactive) | > 100 µM (inactive) | > 100 µM (inactive) | > 100 µM (inactive) | > 100 µM (inactive) | > 100 µM (inactive) | > 100 µM (inactive) | > 100 | > 100 µM (inactive) | > 100 µM (inactive) | > 100 µM (inactive) | > 100 µM (inactive) | > 100 µM (inactive) | > 100 µM (inactive) | > 100 µM (inactive) | > 100 µM (inactive) | > 100 µM (inactive) | > 100 µM (inactive) | 
c1ccc(CSP234N5CCN2CCN3CCN4CC5)c(CSP234N5CCN2CCN3CCN4CC5)c1 | > 100 µM (inactive) | > 100 µM (inactive) | > 100 µM (inactive) | 13.6 µM (inactive) | 55 µM (inactive) | > 100 µM (inactive) |  |  | > 100 | > 100 µM (inactive) | > 100 µM (inactive) | 37.2 µM (inactive) | 41.7 µM (inactive) |  |  | 31.5 µM (inactive) | > 100 µM (inactive) | > 100 µM (inactive) | > 100 µM (inactive) | 30.8 µM (inactive)
CC1=CC(C)(C)Nc2ccc(CSc3ccccc3)cc21 | 22.8 µM (inactive) | 39.5 µM (inactive) | 22 µM (inactive) | 22 µM (inactive) | 17.1 µM (inactive) | 23.2 µM (inactive) | 16.3 µM (inactive) | 31.3 µM (inactive) | 30.9 | 14.9 µM (inactive) | 36.1 µM (inactive) | 16.1 µM (inactive) | 44.8 µM (inactive) | 48.4 µM (inactive) | 24.1 µM (inactive) | 26.6 µM (inactive) | 18.7 µM (inactive) | 35.3 µM (inactive) | 26.7 µM (inactive) | 
O=C1CCC2(c3ccccc3)Nc3ccncc3N12 (stereo not drawn) | > 10 µM (inactive) | > 10 µM (inactive) | > 10 µM (inactive) |  |  | > 10 µM (inactive) |  | 3.49 µM (inactive) | > 10 | > 10 µM (inactive) |  | > 10 µM (inactive) | > 10 µM (inactive) | > 10 µM (inactive) |  | > 10 µM (inactive) | > 10 µM (inactive) | > 10 µM (inactive) | > 10 µM (inactive) | > 10 µM (inactive)
Cc1noc(C)c1/N=N/c1ccc2nonc2c1N | > 100 µM (inactive) | 58.7 µM (inactive) | > 100 µM (inactive) | > 100 µM (inactive) | > 100 µM (inactive) | 42.4 µM (inactive) | > 100 µM (inactive) | 36.7 µM (inactive) | > 100 | > 100 µM (inactive) | > 100 µM (inactive) | > 100 µM (inactive) | 23.4 µM (inactive) |  |  | > 100 µM (inactive) | > 100 µM (inactive) | > 100 µM (inactive) | > 100 µM (inactive) | > 100 µM (inactive)
O=C1CC(c2ccccc2)[S+]([O-])c2ccccc2N1 (stereo not drawn) | > 100 µM (inactive) | > 100 µM (inactive) | > 100 µM (inactive) | > 100 µM (inactive) | > 100 µM (inactive) | > 100 µM (inactive) |  | > 100 µM (inactive) | > 100 | > 100 µM (inactive) | > 100 µM (inactive) | > 100 µM (inactive) |  | > 100 µM (inactive) |  | > 100 µM (inactive) | > 100 µM (inactive) | > 100 µM (inactive) | 23.1 µM (inactive) | 65.2 µM (inactive)
O=C1CSC(c2ccccc2O)N1c1ccc(Oc2ccc(Cl)cc2)c(Cl)c1 (stereo not drawn) | 21.1 µM (inactive) | 36.1 µM (inactive) | 26.6 µM (inactive) | 18.5 µM (inactive) | 17.2 µM (inactive) | 18.8 µM (inactive) |  | 21 µM (inactive) | 19.5 | 21.6 µM (inactive) | 23.3 µM (inactive) | 19.7 µM (inactive) | 15.7 µM (inactive) | 30.8 µM (inactive) |  | 29.8 µM (inactive) | 18.6 µM (inactive) | 12.9 µM (inactive) | 26.2 µM (inactive) | 14.3 µM (inactive)
C/C=C/C(=O)N1C(=O)OC[C@@H]1c1ccccc1 | 20.5 µM (inactive) | 17.5 µM (inactive) | 14.7 µM (inactive) | 21.8 µM (inactive) | 18.7 µM (inactive) | 18.2 µM (inactive) | 18.5 µM (inactive) | 18.2 µM (inactive) | 23.3 | 17.4 µM (inactive) | 18.3 µM (inactive) | 19.2 µM (inactive) | 21.9 µM (inactive) | 22.2 µM (inactive) | 26.1 µM (inactive) | 19.4 µM (inactive) | 18 µM (inactive) | 20.5 µM (inactive) | 20.4 µM (inactive) | 
O=C(/C=C/c1ccc(OCc2ccccc2)cc1)NCc1ccc(C(=O)NCCc2ccccc2)cc1 | > 100 µM (inactive) | > 100 µM (inactive) | > 100 µM (inactive) | > 100 µM (inactive) | > 100 µM (inactive) | > 100 µM (inactive) | 64.1 µM (inactive) | > 100 µM (inactive) | > 100 | > 100 µM (inactive) | > 100 µM (inactive) | > 100 µM (inactive) | > 100 µM (inactive) | > 100 µM (inactive) | > 100 µM (inactive) | > 100 µM (inactive) | > 100 µM (inactive) | > 100 µM (inactive) | > 100 µM (inactive) | 
NC(CSCc1ccc(I)cc1)C(=O)O (stereo not drawn) | > 100 µM (inactive) | > 100 µM (inactive) | > 100 µM (inactive) | > 100 µM (inactive) | > 100 µM (inactive) | > 100 µM (inactive) | > 100 µM (inactive) | > 100 µM (inactive) | > 100 | > 100 µM (inactive) | > 100 µM (inactive) | > 100 µM (inactive) |  | > 100 µM (inactive) | > 100 µM (inactive) | > 100 µM (inactive) | > 100 µM (inactive) | > 100 µM (inactive) | > 100 µM (inactive) | 
O=C(Nc1ccc(N2C(=O)CSC2c2cccs2)cc1)c1ccc(N2C(=O)CSC2c2cccs2)cc1 (stereo not drawn) | > 100 µM (inactive) | > 100 µM (inactive) | 62.1 µM (inactive) | > 100 µM (inactive) | > 100 µM (inactive) | 58.6 µM (inactive) | > 100 µM (inactive) | > 100 µM (inactive) | > 100 | > 100 µM (inactive) | > 100 µM (inactive) | > 100 µM (inactive) | > 100 µM (inactive) |  |  | > 100 µM (inactive) | > 100 µM (inactive) | > 100 µM (inactive) | > 100 µM (inactive) | 
OCC1OC(n2nc(-c3ccccc3)nc2-c2cnccn2)C(O)C1O (stereo not drawn) | > 100 µM (inactive) | > 100 µM (inactive) | > 100 µM (inactive) | > 100 µM (inactive) | > 100 µM (inactive) | > 100 µM (inactive) |  | > 100 µM (inactive) | > 100 | > 100 µM (inactive) |  | > 100 µM (inactive) | > 100 µM (inactive) |  |  | > 100 µM (inactive) | > 100 µM (inactive) | > 100 µM (inactive) | > 100 µM (inactive) | 
CC(C)N(/C(F)=N\C(=O)Nc1ccccc1C(F)(F)F)C(C)C |  | 52.5 µM (inactive) | 35.6 µM (inactive) | 44.7 µM (inactive) | 38.4 µM (inactive) | 69 µM (inactive) |  | 33.7 µM (inactive) | 34.3 | > 100 µM (inactive) | 37.4 µM (inactive) | 40.2 µM (inactive) | 92 µM (inactive) | > 100 µM (inactive) |  | 47.6 µM (inactive) | 32 µM (inactive) | 89.3 µM (inactive) | 55.1 µM (inactive) | 28.5 µM (inactive)
CN1C(=O)C2CCC(=O)N2c2cccnc21 (stereo not drawn) | > 100 µM (inactive) | > 100 µM (inactive) | > 100 µM (inactive) | > 100 µM (inactive) | > 100 µM (inactive) | > 100 µM (inactive) |  |  | > 100 |  | > 100 µM (inactive) | > 100 µM (inactive) | > 100 µM (inactive) | > 100 µM (inactive) |  |  | > 100 µM (inactive) | > 100 µM (inactive) | > 100 µM (inactive) | > 100 µM (inactive)
COc1cc(C2=NNC(=O)c3ccccc3N2c2nc(-c3cccs3)nc3ccc(Br)cc23)cc(OC)c1OC | 14.7 µM (inactive) | 23.2 µM (inactive) | 2.33 µM (inactive) | 5.24 µM (inactive) | 10.5 µM (inactive) | 6.95 µM (inactive) |  | 65.6 µM (inactive) | 4.38 | 40.1 µM (inactive) | 15.3 µM (inactive) | 7.73 µM (inactive) | 10.9 µM (inactive) | 36.1 µM (inactive) | 34.8 µM (inactive) | 17.1 µM (inactive) | 5.4 µM (inactive) | 8.91 µM (inactive) | 21.5 µM (inactive) | 
